# According to patent EP4810508A1, “ARABINOSE DERIVATIVE COMPOUND, AND COMPOSITION COMPRISING SAME FOR PREVENTING OR TREATING DEGENERATIVE BRAIN DISEASES” (Digmbio. Inc., priority 2023, dated 2025):
# What was measured:
# [1] = tested on: male ICR mice; assay: Scopolamine-induced cognitive impairment model: Y-maze test; assay type: in vivo
# Text: (§1) A memory loss rodent animal model induced by scopolamine intraperitoneal administration is used, and an evaluation method for memory uses a Y-maze test and a passive avoidance test (PAT). Scopolamine is a representative experimental model showing an impairment of cognitive function similar to AD patients by blocking neurotransmitters when administered to an animal as an antagonist of a muscarinic acetylcholine receptor, and as a cognitive function evaluation technique, a Y-maze test and a passive avoidance experiment, which are general and representative methods, were used, and in order to objectify the efficacy levels of the compounds, a group administered with donepezil (Aricept, Eisa) as a positive control material was separately provided to compare the efficacy levels of the compounds.
# (§2) In order to evaluate cognitive function, 5-week-old male ICR mice were used, the compounds to be evaluated were prepared at a dose of 50 mg/kg/ml and repeatedly orally administered at a predetermined time for 7 days, and the positive control material was carried out at 5 mg/kg/ml. After the last administration, after 30 minutes of intraperitoneal administration of 1 mg/kg/2 ml of scopolamine, a Y-maze test and a passive avoidance test, which are cognitive function evaluations, were performed.
# The Y-maze test is a method for evaluating the ability to sequentially act as an experiment for measuring short-term memory. The measurement equipment is composed of three branches, each branch has a length of 42 cm, a width of 3 cm, and a height of 12 cm, and an angle at which three branches are folded is 120°. Experimental animals are put into each branch for 8 minutes, and the number of times of entering the branches to the tail of the experimental animal and the case of being sequentially received in each branch are scored (actual alternation). The alternation behavior is defined as entering not to overlap all three, and is calculated by the following equation. [formula]
# [2] = tested on: HRE/Luc/HEK293 cells; assay: HRE (Hypoxia Response Element) luciferase assay; assay type: cell-based, human
# How it was run: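 HRE-luciferase HEK293 cells in MEM/10% FBS pretreated with compound 6 h, then held under hypoxia (0.1% O2) 18 h; luminescence read after lysis. Scored as fold increase over vehicle, with twofold threshold at 100, 10 or 1 µM.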
# [3] = tested on: male ICR mice; assay: Scopolamine-induced cognitive impairment model: passive avoidance test (PAT); assay type: in vivo
# Text: as §1, §2
# In addition, the passive avoidance test was conducted using an avoidance learning box (Jeondo B&P, Korea, Seoul), and the avoidance learning box is divided into a dark room and a bright room, and when a laboratory animal is put into a bright room, the subject goes beyond the dark room. At the moment, an electric shock of 0.5 mA is applied for 5 seconds, and when the next day experimental animal is put back into a bright room, an electric shock in a dark room is memorized and stay in a bright room. In this case, a step-through latency is measured to evaluate memory. The efficacy of the compounds of the present invention against the normal group and the control group in the Y-maze test and the passive avoidance test was described in the following Table 3 (Scopolamine-induced cognitive impairment model result).
smiles,measurement,setting,value
"CC(C)c1ccc(Oc2ccc(O[C@H]3OC[C@H](O)[C@H](O)[C@H]3O)cc2)cc1 [Example 35, (2R,3R,4S,5S)-2-(4-(4-isopropylphenoxy)phenoxy)tetrahydro-2H-pyran-3,4,5-triol]",percent recovery of cognitive function (Y-maze) at 50 mg/kg,"[1]; Mus musculus, po, 168 h, read-out: in vivo(effect) Y-maze (%)",41%
same,in vivo Y-maze (%),"[1]; spontaneous alternation, scopolamine 1 mg/kg i.p., compounds 50 mg/kg oral for 7 days, donepezil 5 mg/kg (avg.)",59%
same,fold induction at 10 µM,"[2]; Homo sapiens, HEK293, 10uM, fold increase of HRE expression, hypoxic conditions (O2 0.1%) 18 hours, Table 2, read-out: HRE-increasing 10uM",3.7
same,fold induction at 100 µM,"[2]; Homo sapiens, HEK293, 100uM, fold increase of HRE expression, hypoxic conditions (O2 0.1%) 18 hours, Table 2, read-out: HRE-increasing 100uM",< 1
same,HRE expression,[2]; concentration of 10 µM,more than threefold
same,"percent recovery of memory in passive avoidance test (normal group = 100, scopolamine control = 0) at 50 mg/kg","[3]; Mus musculus, po, 168 h, read-out: in vivo(effect) PAT (%)",45%
same,in vivo PAT,"[3]; time staying in bright room (step-through latency), scopolamine 1 mg/kg i.p., compounds 50 mg/kg oral for 7 days, donepezil 5 mg/kg (avg.)",141 s
